Values joined by “and” are separate entries in the source; they are usually repeats but may differ in a detail not shown here. Equal entries are not always repeated.
Assays:
[1] = molecular target: P-glycoprotein (P-gp) in PC3-DR cells (Homo sapiens, UniProt P08183); assay: P-gp activity, calcein-AM assay; conditions: 30 min
From the text: A major contributor to docetaxel resistance is P-glycoprotein (also known as P-gp, MDR1), known to be overexpressed in PC3-DR cells. P-glycoprotein is a molecular efflux pump that actively expels various xenobiotic agents, including docetaxel, from cancer cells. Increased P-gp expression correlates with an increased IC50 for docetaxel, signifying enhanced drug resistance. […] In this assay, the non-fluorescent calcein-AM passively diffuses into cells, where it is hydrolyzed by cellular esterases into fluorescent calcein. Both calcein and its precursor are P-gp substrates and are actively transported out of P-gp-highly expressing cells (e.g. PC3-DR cells), which results in reduced intracellular fluorescence. P-gp inhibitors, such as tariquidar, block P-gp function, leading to calcein accumulation and an increase in fluorescence, which therefore can be used as a reliable indicator of reduced P-gp activity. A similar fluorescence increase is observed in the presence of docetaxel due to its competitive binding to the P-gp transporter alongside calcein[38].
Number of biological replicates n = 3. […] Number of biological replicates n = 3.
The evaluation of the activity of P-glycoprotein (P-gp) was performed using calcein-AM assay as described previously. […] The plates were incubated for 15 min, and the green calcein fluorescence was recorded using an Infinite F200PRO plate reader (TECAN). […]

phospho-ERK1/2 = assay: Western blot analysis of MAP kinases; assay type: cell-based, human; conditions: 22Rv1, 2 h
Experimental: (§1) Fig. 3 Functional kinome profiling of STKs (serine/threonine kinases) in 22Rv1 cells and validation of results. (a) Expression of apoptotic markers. The cells were treated with CuC1 for the indicated time, and the expression of proteins was analyzed by Western blotting. (b, c) Functional kinome profiling. A heatmap displaying log2-transformed phosphorylation levels of 99 analyzed STK substrate peptides (b) and upstream kinase analysis, which predicted kinases affected by CuC1 (c). Values of the normalized kinase statistics represented by bars, where log2 < 0 indicates decreased kinase activity and log2 > 0 denotes increased activity. Statistically significant changes having a specificity score log2 > 1.3 are highlighted by red bars. Number of biological replicates n = 3. (d), Western blot analysis of MAP kinases. 22Rv1 cells were treated with CuC1 for 2 h and the MAPK expression was analyzed by Western blotting. β-actin was used as a loading control. The band intensity of the protein of interest was quantified using Image Lab software and normalized to the band intensity β-actin (a), or to the band intensity of non-phospho MAPK (d), and is indicated by red numbers. Full-size blots are presented in Supplementary Fig. S2.
(§2) Western blotting was performed as previously described. In brief, 22Rv1 cells were seeded in Petri dishes (1 × 10^6 cells/dish in 10 mL/dish of media), incubated overnight, and treated with the drug for a specific time. Cells were harvested by scratching, washed with cold PBS, and lysed with RIPA buffer supplemented with protease and phosphatase inhibitor cocktails. Protein lysates were separated using precast Mini-PROTEAN® TGX Stain-FreeTM gels (Bio-Rad, Hercules, CA, USA) and SDS-PAGE. Proteins were transferred on a PVDF membrane and detected using specified primary and secondary antibodies. The protein signals were visualized and detected using the ECL chemiluminescence system (Thermo Scientific, Rockford, IL, USA). […] The signal (band) intensity was quantified using Image Lab v. […]

phospho-JNK1/2 = assay: Western blot analysis of MAP kinases; assay type: cell-based, human; conditions: 22Rv1, 2 h
Experimental: as §1, §2

phospho-p38 = assay: Western blot analysis of MAP kinases; assay type: cell-based, human; conditions: 22Rv1, 2 h
Experimental: as §1, §2

22Rv1 cells = assay: Drug combination MTT assay, SynergyFinder ZIP analysis; assay type: cell-based, human; conditions: 22Rv1, 48 h
Experimental: (§3) Fig. 5 Effects of CuC1 in combination with taxanes and platinum agents. PC3-DR and 22Rv1 cells were co-treated with cisplatin (Cis), carboplatin (Carbo), docetaxel (Doce), or cabazitaxel (Caba) in combination with CuC1 at the indicated concentrations for 48 h. Cellular viability was evaluated using the MTT assay (number of biological replicates n = 3.) and is represented in the Supplementary Table S2. The cytotoxic effects were further analyzed, and 3D heat maps were constructed using SynergyFinder 3.0 software. The drug effects in combination (synergistic, additive, or antagonistic) were analyzed and visualized using the ZIP algorithm and are indicated by δ-score. δ > 10: Synergistic interactions (dark red area); […]: additive effect; δ < − 10: Antagonistic interactions (dark green area). A ZIP synergy score represents a mean δ overall the concentration range used.
(§4) The effect of combinational treatment with established chemotherapies was evaluated as previously reported^54. In brief, cells were exposed to individual drugs of their combinations for 48 h, and the viability was measured by MTT assay and was then analyzed using SynergyFinder 3.0 software (https://synergyfinder.fimm.fi) and the ZIP score algorithm. Statistical analysis was conducted automatically by the software using its inbuilt algorythms based on the input data type and size.

PC3-DR cells [2] = assay: as above; assay type: cell-based, human; conditions: 48 h
Experimental: as §3, §4

PC3-DR cells [3] = conditions: TQD 50 nM
Experimental: Viability was evaluated using MTT assay, and IC50s were calculated using GraphPad Prism software. Number of biological replicates n = 3. […] Cells (6 × 10^3 cells/well in 100 μL/well of media) were plated in 96-well plates. The plates were incubated overnight, and the medium was replaced with fresh medium containing drugs at the indicated concentrations. The plates were further incubated for 48 h, unless otherwise stated, the solution of MTT reagent in PBS was added to each well, and cells were incubated for another 2–4 h to form formazan crystals. Then the media was removed and the plates were dried overnight. 50 μL of DMSO was added to each well to dissolve the formazan crystals. The absorbance of each well was measured using an Infinite F200PRO reader (TECAN, Männedorf, Switzerland). The cell viability was estimated as an inhibition concentration (IC50), which was calculated using GraphPad Prism software v.9.1.1 (GraphPad Software, San Diego, CA, USA). IC₅₀ values were determined by fitting the data to a nonlinear regression model (log[inhibitor] versus normalized response—variable slope).

Chain of P-glycoprotein (P-gp) in PC3-DR cells (P08183 whole entry): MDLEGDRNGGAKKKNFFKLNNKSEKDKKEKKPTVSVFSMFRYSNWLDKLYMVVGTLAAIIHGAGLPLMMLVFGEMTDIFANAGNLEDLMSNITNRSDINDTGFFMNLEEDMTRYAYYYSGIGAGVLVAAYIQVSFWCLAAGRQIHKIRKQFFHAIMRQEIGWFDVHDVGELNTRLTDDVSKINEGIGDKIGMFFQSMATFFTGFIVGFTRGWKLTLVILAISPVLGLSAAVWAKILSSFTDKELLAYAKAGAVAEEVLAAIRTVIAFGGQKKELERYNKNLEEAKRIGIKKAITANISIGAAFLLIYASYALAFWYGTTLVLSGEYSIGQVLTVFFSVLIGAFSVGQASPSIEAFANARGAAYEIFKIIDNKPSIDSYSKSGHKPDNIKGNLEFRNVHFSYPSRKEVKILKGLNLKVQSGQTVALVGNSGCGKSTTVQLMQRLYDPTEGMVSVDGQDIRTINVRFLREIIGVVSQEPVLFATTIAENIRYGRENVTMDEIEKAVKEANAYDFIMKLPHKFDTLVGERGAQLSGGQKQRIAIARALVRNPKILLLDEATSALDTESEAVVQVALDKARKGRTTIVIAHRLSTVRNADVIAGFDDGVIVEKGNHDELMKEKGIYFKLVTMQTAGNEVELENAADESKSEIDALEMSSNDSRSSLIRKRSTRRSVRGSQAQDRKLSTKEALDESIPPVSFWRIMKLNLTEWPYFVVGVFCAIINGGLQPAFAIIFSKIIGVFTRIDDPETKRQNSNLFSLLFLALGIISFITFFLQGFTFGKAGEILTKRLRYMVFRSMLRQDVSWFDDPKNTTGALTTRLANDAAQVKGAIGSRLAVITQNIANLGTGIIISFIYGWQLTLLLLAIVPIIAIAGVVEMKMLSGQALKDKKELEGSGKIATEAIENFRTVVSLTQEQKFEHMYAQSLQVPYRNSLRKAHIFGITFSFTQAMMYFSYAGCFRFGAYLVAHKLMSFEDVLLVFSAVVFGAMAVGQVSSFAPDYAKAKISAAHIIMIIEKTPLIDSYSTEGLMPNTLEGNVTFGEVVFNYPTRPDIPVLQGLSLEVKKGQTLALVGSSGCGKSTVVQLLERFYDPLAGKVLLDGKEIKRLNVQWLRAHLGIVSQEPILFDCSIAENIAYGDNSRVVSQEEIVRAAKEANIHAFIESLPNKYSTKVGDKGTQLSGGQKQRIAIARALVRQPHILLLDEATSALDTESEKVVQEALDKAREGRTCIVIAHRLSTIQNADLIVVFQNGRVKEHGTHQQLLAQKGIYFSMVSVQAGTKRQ

CO[C@@H]1[C@@H](O)[C@H](O[C@@H]2[C@@H](O)[C@H](O[C@H]3[C@H](O)[C@@H](O[C@@H]4OC[C@@H](O)[C@H](O)[C@H]4O)[C@H](O[C@H]4[C@H](O[C@H]5CC[C@]6(C)[C@@H]7CCC89C(=O)O[C@@](C)(/C=C\C=C(C)C)[C@H]8[C@@H](OC(C)=O)C[C@@]9(C)C7=CC[C@H]6C5(C)C)OC[C@@H](O)[C@@H]4O)O[C@@H]3C)O[C@H](CO)[C@H]2O)OC[C@H]1O (stereo partly drawn) [CuC1, cucumarioside C1]
P-gp activity (calcein-AM efflux) ([1]; glycosides at non-cytotoxic concentrations, controls TQD 50 nM, Doce 100 nM): did not result in any significant changes in calcein-AM efflux | intracellular calcein fluorescence ([1]; high cytotoxic concentrations): increase of intracellular fluorescence | active (phosphorylated) ERK1/2 (phospho-ERK1/2): inhibition of active (phosphorylated) forms | active (phosphorylated) JNK1/2 (phospho-JNK1/2): but not JNK1/2 | active (phosphorylated) p38 (phospho-p38): inhibition of active (phosphorylated) forms | Response (% of effect) (22Rv1 cells; CuC1 0.25 μM alone): 31.1% and 43.16% and 29.95% and 34.58% and 29.34% and 26.82% and 33.12% and 30.57% | Response (% of effect) (22Rv1 cells; CuC1 0.5 μM alone): 81.71% and 82.23% and 73.42% and 77.37% and 76.17% and 72.77% and 72.16% and 76.9194% | Response (% of effect) (22Rv1 cells; CuC1 1 μM alone): 95.8597% and 95.08% and 89.09% and 94.3% and 94.37% and 95.8% and 97.07% and 93.71% | Response (% of effect) (PC3-DR cells [2]; CuC1 1 μM alone): 33.69% and 25.1% and 26.58% and 38.2% and 34.475% and 30.33% and 41.47% and 24.44% | Response (% of effect) (PC3-DR cells [2]; CuC1 2 μM alone): 61.45% and 55.31% and 54.31% and 72.9% and 63.58% and 68.91% and 61.135% and 65.14% | Response (% of effect) (PC3-DR cells [2]; CuC1 4 μM alone): 90.21% and 89.15% and 83.68% and 93.87% and 94.47% and 92.06% and 92.89% and 96.86% | effect of co-treatment with tariquidar on cytotoxicity (PC3-DR cells [3]): did not alter cytotoxicity

Reference: publication PMC12322260, “Anticancer activity of triterpene glycosides from the sea star Solaster pacificus” (Scientific Reports, 2025)
